Legend:
[1] = molecular target: Alpha-1B adrenergic receptor (Homo sapiens) (UniProt P35368); settings: Compound concentration 10.0 uM
[2] = molecular target: Alpha-1D adrenergic receptor (Homo sapiens) (UniProt P25100); settings: Compound concentration 10.0 uM
[3] = molecular target: 5-hydroxytryptamine receptor 2B (Homo sapiens) (UniProt P41595); settings: Compound concentration 10.0 uM
[4] = molecular target: Histamine H1 receptor (Homo sapiens) (UniProt P35367); settings: Compound concentration 10.0 uM
Histamine H1 receptor (Homo sapiens), sequence (P35367 whole entry): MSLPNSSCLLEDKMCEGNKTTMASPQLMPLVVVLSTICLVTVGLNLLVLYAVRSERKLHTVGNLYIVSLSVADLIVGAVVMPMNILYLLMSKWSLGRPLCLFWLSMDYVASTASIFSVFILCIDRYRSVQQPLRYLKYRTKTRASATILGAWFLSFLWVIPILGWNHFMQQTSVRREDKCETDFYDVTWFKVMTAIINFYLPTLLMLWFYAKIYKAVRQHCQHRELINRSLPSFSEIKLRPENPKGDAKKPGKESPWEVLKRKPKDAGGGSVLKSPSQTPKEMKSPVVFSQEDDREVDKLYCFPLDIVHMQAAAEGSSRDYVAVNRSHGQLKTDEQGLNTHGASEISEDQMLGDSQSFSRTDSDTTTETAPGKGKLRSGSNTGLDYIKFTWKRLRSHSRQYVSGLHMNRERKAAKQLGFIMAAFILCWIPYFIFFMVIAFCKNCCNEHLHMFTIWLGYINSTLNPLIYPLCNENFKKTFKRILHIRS

[5] = molecular target: Prostaglandin G/H synthase 2 (Homo sapiens) (UniProt P35354); experiment: Inhibition of Cyclooxygenase COX-2 at 10.0 µM in the Eurofins Panlabs Safety Screen; settings: Compound concentration 10.0 uM
[6] = molecular target: 5-hydroxytryptamine receptor 2A (Homo sapiens) (UniProt P28223); settings: Compound concentration 10.0 uM
5-hydroxytryptamine receptor 2A (Homo sapiens), sequence (P28223 whole entry): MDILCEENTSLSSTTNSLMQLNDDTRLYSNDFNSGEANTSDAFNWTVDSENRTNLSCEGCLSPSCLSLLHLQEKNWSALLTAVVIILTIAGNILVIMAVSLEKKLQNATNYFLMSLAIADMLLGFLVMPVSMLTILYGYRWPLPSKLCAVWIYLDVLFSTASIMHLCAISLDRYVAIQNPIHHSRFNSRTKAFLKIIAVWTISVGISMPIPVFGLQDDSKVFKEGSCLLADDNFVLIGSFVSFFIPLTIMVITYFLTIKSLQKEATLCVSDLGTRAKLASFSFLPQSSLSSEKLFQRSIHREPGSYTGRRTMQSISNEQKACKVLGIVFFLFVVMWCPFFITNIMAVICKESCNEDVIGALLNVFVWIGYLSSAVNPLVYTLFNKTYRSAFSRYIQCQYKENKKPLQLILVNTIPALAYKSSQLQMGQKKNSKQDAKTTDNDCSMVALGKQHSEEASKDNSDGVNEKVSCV

[7] = molecular target: Estrogen receptor (Homo sapiens) (UniProt P03372); experiment: Inhibition of Estrogen Eralpha at 10.0 µM in the Eurofins Panlabs Safety Screen; settings: Compound concentration 10.0 uM
[8] = molecular target: Growth hormone secretagogue receptor type 1 (Homo sapiens) (UniProt Q92847); experiment: Inhibition of Growth Hormone Secretagogue (GHS, Ghrelin) at 10.0 µM in the Eurofins Panlabs Safety Screen; settings: Compound concentration 10.0 uM
Growth hormone secretagogue receptor type 1 (Homo sapiens), sequence (Q92847 whole entry): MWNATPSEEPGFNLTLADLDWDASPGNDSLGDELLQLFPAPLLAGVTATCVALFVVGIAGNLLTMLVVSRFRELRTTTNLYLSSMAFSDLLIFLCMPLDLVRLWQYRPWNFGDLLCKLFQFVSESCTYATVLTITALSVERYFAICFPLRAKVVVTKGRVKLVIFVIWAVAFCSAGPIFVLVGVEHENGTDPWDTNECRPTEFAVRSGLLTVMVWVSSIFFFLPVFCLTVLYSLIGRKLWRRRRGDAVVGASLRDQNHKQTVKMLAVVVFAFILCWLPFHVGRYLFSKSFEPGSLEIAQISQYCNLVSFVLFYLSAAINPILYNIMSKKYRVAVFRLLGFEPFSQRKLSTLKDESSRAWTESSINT

[9] = molecular target: T1, Muscarinic acetylcholine receptor M2 (Homo sapiens, UniProt P08172); experiment: GPCRScan assay: inhibition of M2; set-up: radioligand conc. used [nm] 0.2 – 1.0, parental cells stable CHO
T1 sequence (P08172 whole entry): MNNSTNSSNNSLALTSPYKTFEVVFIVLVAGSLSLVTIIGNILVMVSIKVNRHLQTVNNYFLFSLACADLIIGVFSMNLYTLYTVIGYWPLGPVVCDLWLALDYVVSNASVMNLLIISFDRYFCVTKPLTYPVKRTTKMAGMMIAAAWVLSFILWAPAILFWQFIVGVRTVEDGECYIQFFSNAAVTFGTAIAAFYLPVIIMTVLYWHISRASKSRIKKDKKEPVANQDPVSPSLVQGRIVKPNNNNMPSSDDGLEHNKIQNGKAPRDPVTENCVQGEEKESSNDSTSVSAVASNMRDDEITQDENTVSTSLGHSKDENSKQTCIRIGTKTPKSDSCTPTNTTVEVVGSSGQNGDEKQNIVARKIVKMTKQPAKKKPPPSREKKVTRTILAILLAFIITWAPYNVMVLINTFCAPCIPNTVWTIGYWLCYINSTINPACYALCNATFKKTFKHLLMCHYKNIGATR

[10] = molecular target: GABA-A receptor; anion channel (Rattus norvegicus) (UniProt O09028+P15431+P18506+P18508+P19969+P20236+P23574+P23576+P28471+P28473+P30191+P62813+P63079+P63138+Q91ZM7+Q9ES14); experiment: Inhibition of GABAA, Chloride Channel, TBOB at 10.0 µM in the Eurofins Panlabs Safety Screen; assay type: protein-complex assay; settings: Compound concentration 10.0 uM
[11] = molecular target: Prostaglandin G/H synthase 1 (Homo sapiens) (UniProt P23219); experiment: Inhibition of Cyclooxygenase COX-1 at 10.0 µM in the Eurofins Panlabs Safety Screen; settings: Compound concentration 10.0 uM
Histamine H3 receptor = Histamine H3 receptor (Homo sapiens, UniProt Q9Y5N1); experiment: Inhibition of Histamine H3 at 10.0 µM in the Eurofins Panlabs Safety Screen; settings: Compound concentration 10.0 uM
[12] = molecular target: cGMP-inhibited 3',5'-cyclic phosphodiesterase 3A (Homo sapiens) (UniProt Q14432); experiment: Inhibition of Phosphodiesterase PDE3A at 10.0 µM in the Eurofins Panlabs Safety Screen; settings: Compound concentration 10.0 uM
[13] = molecular target: T2, 5-hydroxytryptamine receptor 2C (Homo sapiens) (UniProt P28335); settings: Compound concentration 10.0 uM
T2 sequence (whole entry): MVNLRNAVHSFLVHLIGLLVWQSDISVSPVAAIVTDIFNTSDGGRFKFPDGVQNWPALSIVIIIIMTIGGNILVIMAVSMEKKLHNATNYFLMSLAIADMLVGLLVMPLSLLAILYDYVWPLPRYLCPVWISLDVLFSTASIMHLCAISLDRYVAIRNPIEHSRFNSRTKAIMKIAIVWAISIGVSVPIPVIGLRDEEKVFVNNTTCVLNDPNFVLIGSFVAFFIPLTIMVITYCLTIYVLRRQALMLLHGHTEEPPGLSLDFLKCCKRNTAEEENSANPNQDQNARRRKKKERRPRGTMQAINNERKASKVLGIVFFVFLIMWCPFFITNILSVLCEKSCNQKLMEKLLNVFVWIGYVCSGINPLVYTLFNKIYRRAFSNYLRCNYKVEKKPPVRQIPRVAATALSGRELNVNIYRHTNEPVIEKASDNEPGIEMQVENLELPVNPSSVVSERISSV

[14] = molecular target: T3, Sodium-dependent dopamine transporter (Homo sapiens, UniProt Q01959); experiment: Inhibition of Transporter, Dopamine (DAT) at 10.0 µM in the Eurofins Panlabs Safety Screen; settings: Compound concentration 10.0 uM
T3 sequence (Q01959 whole entry): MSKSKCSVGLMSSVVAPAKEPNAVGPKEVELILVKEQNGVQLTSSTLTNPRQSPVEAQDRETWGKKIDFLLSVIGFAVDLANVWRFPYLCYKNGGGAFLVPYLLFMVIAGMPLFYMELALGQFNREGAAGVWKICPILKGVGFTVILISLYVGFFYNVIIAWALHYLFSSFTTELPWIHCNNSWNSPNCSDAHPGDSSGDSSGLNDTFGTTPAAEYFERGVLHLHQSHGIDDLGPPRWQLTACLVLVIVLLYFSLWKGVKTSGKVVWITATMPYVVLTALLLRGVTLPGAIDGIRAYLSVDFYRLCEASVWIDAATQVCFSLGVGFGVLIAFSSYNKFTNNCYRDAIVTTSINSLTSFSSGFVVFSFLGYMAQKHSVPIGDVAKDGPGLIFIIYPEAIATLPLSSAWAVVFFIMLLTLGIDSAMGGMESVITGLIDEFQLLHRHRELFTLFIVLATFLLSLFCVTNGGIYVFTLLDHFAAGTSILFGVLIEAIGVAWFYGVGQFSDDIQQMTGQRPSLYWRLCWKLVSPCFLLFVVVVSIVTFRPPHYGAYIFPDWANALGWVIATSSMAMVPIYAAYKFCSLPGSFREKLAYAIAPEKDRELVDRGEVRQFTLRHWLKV

[15] = molecular target: Endothelin-1 receptor (Homo sapiens) (UniProt P25101); experiment: Inhibition of Endothelin ETA at 10.0 µM in the Eurofins Panlabs Safety Screen; settings: Compound concentration 10.0 uM
Endothelin-1 receptor (Homo sapiens), sequence (P25101 whole entry): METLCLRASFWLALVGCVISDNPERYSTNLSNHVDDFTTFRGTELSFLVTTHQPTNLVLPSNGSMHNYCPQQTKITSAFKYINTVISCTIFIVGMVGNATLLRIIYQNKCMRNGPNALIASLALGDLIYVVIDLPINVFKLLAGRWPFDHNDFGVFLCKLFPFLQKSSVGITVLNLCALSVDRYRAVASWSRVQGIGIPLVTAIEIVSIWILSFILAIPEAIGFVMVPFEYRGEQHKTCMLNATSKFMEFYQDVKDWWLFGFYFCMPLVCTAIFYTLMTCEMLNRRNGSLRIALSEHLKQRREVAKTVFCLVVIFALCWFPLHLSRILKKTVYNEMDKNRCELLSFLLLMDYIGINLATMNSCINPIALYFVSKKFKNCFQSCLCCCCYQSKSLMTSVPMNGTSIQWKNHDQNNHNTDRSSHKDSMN

[16] = molecular target: 5-hydroxytryptamine receptor 1D (Homo sapiens) (UniProt P28221); settings: Compound concentration 10.0 uM
5-hydroxytryptamine receptor 1D (Homo sapiens), sequence (P28221 whole entry): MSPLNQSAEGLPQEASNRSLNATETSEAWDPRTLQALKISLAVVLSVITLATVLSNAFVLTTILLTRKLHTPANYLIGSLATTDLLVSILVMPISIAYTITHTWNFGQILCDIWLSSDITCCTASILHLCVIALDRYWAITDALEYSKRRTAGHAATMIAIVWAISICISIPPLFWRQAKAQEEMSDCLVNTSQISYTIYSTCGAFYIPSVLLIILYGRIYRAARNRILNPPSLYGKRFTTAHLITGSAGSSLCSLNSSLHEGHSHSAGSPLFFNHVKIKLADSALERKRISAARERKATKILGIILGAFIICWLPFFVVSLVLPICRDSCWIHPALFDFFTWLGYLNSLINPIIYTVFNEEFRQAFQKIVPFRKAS

[17] = molecular target: T4, 5-hydroxytryptamine receptor 1A (Homo sapiens) (UniProt P08908); settings: Compound concentration 10.0 uM
T4 sequence (whole entry): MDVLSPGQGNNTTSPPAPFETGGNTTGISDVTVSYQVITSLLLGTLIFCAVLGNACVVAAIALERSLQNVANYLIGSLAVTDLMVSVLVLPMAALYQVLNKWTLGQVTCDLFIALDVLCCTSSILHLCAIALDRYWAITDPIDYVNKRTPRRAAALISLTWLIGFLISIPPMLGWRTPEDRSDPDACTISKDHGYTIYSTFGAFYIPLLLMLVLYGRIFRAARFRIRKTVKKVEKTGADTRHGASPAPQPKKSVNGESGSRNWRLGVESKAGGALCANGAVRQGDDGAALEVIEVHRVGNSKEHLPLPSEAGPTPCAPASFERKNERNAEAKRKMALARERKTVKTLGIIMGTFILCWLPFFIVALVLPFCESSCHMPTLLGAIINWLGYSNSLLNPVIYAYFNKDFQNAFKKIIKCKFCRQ

[18] = molecular target: T3, Sodium-dependent dopamine transporter; experiment: GPCRScan assay: inhibition of DAT; set-up: radioligand conc. used [nm] 3.6 – 16.0, parental cells stable HEK
[19] = molecular target: Sodium/potassium-transporting ATPase (Sus scrofa) (UniProt P05027+P05024+D2WKD8+D2WKD7+F1ST41); experiment: Inhibition of ATPase, Na+/K+, Heart, Pig at 10.0 µM in the Eurofins Panlabs Safety Screen; assay type: protein-complex assay; settings: Compound concentration 10.0 uM
[20] = molecular target: Beta-2 adrenergic receptor (Homo sapiens) (UniProt P07550); settings: Compound concentration 10.0 uM
Beta-2 adrenergic receptor (Homo sapiens), sequence (P07550 whole entry, looked up): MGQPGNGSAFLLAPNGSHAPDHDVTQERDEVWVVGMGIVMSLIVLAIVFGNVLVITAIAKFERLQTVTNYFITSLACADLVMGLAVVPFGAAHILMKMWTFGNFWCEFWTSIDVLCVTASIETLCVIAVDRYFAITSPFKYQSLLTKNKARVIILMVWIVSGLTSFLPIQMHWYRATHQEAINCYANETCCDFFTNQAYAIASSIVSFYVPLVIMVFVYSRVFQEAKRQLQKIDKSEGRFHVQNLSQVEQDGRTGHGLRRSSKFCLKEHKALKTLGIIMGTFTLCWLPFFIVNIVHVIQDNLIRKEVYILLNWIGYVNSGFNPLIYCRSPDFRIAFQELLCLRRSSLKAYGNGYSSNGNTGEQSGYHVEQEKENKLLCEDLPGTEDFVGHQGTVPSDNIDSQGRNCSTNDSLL

[21] = molecular target: B2 bradykinin receptor (Homo sapiens) (UniProt P30411); experiment: Inhibition of Bradykinin B2 at 10.0 µM in the Eurofins Panlabs Safety Screen; settings: Compound concentration 10.0 uM
[22] = molecular target: Insulin receptor (Homo sapiens) (UniProt P06213); experiment: Inhibition of Insulin at 10.0 µM in the Eurofins Panlabs Safety Screen; settings: Rattus norvegicus; Compound concentration 10.0 uM

Alpha-1B adrenergic receptor (Homo sapiens), sequence (P35368 whole entry): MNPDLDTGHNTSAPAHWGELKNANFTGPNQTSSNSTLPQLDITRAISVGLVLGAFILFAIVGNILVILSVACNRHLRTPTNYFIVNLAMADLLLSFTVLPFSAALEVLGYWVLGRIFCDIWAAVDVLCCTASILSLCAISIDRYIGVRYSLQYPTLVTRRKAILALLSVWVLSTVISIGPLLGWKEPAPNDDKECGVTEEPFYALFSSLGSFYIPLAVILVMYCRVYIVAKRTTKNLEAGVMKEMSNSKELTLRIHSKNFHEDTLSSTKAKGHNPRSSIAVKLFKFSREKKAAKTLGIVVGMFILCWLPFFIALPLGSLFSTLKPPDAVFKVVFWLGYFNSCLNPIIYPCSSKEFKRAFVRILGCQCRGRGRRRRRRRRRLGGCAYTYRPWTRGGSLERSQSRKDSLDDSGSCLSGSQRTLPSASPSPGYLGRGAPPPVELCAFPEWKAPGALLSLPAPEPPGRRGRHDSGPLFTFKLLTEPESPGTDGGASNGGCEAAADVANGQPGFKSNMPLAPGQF
Alpha-1D adrenergic receptor (Homo sapiens), sequence (P25100 whole entry): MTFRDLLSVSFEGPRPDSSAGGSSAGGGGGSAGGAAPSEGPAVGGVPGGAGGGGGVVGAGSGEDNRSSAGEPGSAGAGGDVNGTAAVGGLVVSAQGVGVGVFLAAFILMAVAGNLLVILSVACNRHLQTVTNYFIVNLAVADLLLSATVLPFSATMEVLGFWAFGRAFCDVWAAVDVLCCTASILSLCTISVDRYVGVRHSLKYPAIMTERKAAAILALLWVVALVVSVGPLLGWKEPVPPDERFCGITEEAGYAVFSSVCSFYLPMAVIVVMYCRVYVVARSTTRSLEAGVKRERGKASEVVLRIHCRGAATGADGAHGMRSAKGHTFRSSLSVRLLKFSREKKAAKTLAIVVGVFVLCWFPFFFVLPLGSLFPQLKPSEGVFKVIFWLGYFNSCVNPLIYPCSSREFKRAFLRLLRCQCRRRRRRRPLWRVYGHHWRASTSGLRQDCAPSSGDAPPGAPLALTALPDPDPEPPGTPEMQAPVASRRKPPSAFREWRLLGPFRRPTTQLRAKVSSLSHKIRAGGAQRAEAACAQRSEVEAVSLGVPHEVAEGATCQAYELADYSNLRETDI
5-hydroxytryptamine receptor 2B (Homo sapiens), sequence (P41595 whole entry): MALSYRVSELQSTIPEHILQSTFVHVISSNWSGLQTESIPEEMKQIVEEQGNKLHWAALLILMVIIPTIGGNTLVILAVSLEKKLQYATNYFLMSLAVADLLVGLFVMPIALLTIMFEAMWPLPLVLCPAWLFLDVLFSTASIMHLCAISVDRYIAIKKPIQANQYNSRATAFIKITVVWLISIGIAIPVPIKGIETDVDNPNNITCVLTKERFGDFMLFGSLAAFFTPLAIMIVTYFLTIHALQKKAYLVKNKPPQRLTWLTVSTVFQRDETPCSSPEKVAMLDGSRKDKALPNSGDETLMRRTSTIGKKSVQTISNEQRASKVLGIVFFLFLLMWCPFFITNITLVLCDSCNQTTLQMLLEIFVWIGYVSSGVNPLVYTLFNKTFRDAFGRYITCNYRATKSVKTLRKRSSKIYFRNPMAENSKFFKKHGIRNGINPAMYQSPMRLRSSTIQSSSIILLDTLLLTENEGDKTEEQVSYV

O=C1CCC(N2Cc3cc(C4CCN(C(=O)CCCCCN5CCC(c6ccc(Oc7nn8cnnc8c8c7CCCC8)cc6)CC5)CC4)ccc3C2=O)C(=O)N1 (stereo not given)
inhibition [1]: 6.88% | inhibition [2]: 19.8% | inhibition [3]: 19.9% | inhibition [4]: 10.3% | inhibition [5]: -6% | inhibition [6]: 18.6% | inhibition [7]: 17% | inhibition [8]: 2% | Ki ([9]; read-out: Ki): 0.677 µM | Ki ([9]; read-out: pKi (converted)): 0.676 µM | inhibition [10]: -6% | inhibition [11]: 16% | inhibition (Histamine H3 receptor): 81% | inhibition [12]: 6% | inhibition [13]: 5.83% | inhibition [14]: 38% | inhibition [15]: -1% | inhibition [16]: 48.5% | inhibition [17]: 7.96% | Ki ([18]; read-out: Ki): 3.73 µM | Ki ([18]; read-out: pKi (converted)): 3.39 µM | inhibition [19]: -7% | inhibition [20]: 2.82% | inhibition [21]: 10% | inhibition [22]: -7%

O=C1NCCCC1N1Cc2cc(C3CCN(C(=O)CCCCCN4CCC(c5ccc(Oc6nn7cnnc7c7c6CCCC7)cc5)CC4)CC3)ccc2C1=O (stereo not given)
inhibition [1]: 2.86% | inhibition [2]: 8.76% | inhibition [3]: -7.97% | inhibition [4]: 14.2% | inhibition [5]: -7% | inhibition [6]: 21% | inhibition [7]: 22% | inhibition [8]: 5% | Ki ([9]; read-out: Ki): 1.07 µM | Ki ([9]; read-out: pKi (converted)): 1.05 µM | inhibition [10]: -5% | inhibition [11]: 21% | inhibition (Histamine H3 receptor): 85% | inhibition [12]: 6% | inhibition [13]: 3.95% | inhibition [14]: 39% | inhibition [15]: 3% | inhibition [16]: 37.4% | inhibition [17]: 35.3% | Ki ([18]; read-out: Ki): 4.81 µM | Ki ([18]; read-out: pKi (converted)): 4.47 µM | inhibition [19]: 1% | inhibition [20]: -7.69% | inhibition [21]: 13% | inhibition [22]: -5%

Source: ChEMBL document CHEMBL5463725, “Data for DCP probe BAY-277” (2023)
